Molecular target: T1, HDAC6 (Homo sapiens, UniProt Q9UBN7)
T1 construct: purchased Enzo Life Sciences
T1 sequence (Q9UBN7 1-1215): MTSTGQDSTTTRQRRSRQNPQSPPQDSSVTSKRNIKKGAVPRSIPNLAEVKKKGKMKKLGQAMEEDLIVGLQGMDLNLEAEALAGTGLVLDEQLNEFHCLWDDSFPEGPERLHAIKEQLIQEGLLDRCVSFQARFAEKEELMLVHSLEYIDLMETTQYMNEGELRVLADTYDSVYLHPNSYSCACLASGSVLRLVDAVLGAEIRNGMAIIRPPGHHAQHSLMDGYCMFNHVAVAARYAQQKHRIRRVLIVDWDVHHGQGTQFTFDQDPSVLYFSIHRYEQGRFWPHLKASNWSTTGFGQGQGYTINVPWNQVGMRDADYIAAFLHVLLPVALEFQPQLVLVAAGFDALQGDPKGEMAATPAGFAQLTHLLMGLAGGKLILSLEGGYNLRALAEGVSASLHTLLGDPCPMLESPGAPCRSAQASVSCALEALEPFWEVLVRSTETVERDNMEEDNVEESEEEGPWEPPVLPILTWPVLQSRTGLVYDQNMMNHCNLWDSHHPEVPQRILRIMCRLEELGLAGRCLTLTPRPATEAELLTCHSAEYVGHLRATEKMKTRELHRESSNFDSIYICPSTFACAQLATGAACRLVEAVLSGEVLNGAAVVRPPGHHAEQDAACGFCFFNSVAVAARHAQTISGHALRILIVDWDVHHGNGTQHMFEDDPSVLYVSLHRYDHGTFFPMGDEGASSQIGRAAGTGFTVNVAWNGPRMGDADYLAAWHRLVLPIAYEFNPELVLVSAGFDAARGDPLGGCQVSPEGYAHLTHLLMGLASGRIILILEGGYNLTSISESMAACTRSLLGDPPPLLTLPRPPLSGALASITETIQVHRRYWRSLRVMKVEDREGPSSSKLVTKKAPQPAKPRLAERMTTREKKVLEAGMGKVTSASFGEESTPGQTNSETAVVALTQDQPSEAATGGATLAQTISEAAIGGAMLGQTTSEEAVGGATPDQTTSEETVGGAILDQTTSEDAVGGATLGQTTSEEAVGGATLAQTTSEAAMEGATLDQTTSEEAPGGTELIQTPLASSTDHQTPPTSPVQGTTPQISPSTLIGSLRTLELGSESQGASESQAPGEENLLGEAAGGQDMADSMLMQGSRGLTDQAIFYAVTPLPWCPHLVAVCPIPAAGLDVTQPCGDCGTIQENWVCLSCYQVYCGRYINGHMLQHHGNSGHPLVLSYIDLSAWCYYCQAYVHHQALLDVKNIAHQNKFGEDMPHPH
Test: Fluorimetric measurement of HDAC6 activity (FLUOR DE LYS kit)
Format: biochemical
Settings: Table 1; read-out: HDAC6-Inhibitory Effect, IC50

Work on `C=C(C)[C@@H]1CC=C(CNC(=O)/C=C/c2ccc(C(=O)NO)cc2)CC1` [Compound 35a, (S,E)-N-hydroxy-4-(3-oxo-3-(((4-(prop-1-en-2-yl)cyclohex-1-en-1-yl)methyl)amino)prop-1-en-1-yl)benzamide] yielded an IC50 of 3.85 ± 0.24 µM.
